Experimental data taken from US4816490A, “Novel therapeutic use of a derivative of indane dione and the pharmaceutical compositions intended for this use” (priority 1987, dated 1989).

Tests used:
[1] = system: hyperlipidaemia / atheroma in Wistar rats on atheromatogenous regimen; assay: Biochemical testings in rats on atheromatogenous (cholesterol-rich) diet, including atheroma risk ratios; assay type: in vivo, rat
From the text: The method utilized for the test was that, slightly altered of Aubert D. Feraud J. C., Lacaze B., Pepino., Ponak E. et Podesta M. as described in Atherosclerosis, Vol. 20 (1974), p. 263-280 (Experimental Atherogenesis in the Wistar Rat).
(§1) Female rats of Wistar strain, free of specific pathogenic germs (EOPS) stemming from the breeding EVIC-CEBA
Mean body weight: 160-180 g at the start of the test
Diet: standard tablets UAE AO 3 enriched in cholesterol (0.5%) and in cholic acid (0.5).
15 animals per each batch and by cage in MACROLON (Safi) of 59 cm×38 cm, 5 cm filled with a litter of shavings of wood.
(§2) Diet of the animals: the animals were given the atheromatogenous regimen then while maintaining the same regimen, they were given for 4 days 250,000 IU/kg of vitamin D2 dissolved in olive oil (Sterogyl 15H). The compounds to be tested were given thereafter for 4 weeks immediately after the termination of the atheromatogenous regimen.
At the end of these studies the following tests were performed on all surviving animals.
Esterified blood cholesterol
Cholesterol in LDL (estimate)
The total score for each product was obtained by adding each individual scores and allowed the following classification
The protection against the atheromatogenous risk was evaluated using the following ratios: […]

[2] = Anti-inflammatory / analgesic activity; assay type: in vivo; conditions: doses lower than previously disclosed
Experimental: The said 2-[(3,4-dimethoxy-benzoyl)-methyl]-2-hydroxy-1,3-dioxo-Indane has been used in the French patent at a dose of 250 mg/kg to induce an anti-inflammatory threshold effect. Consequently, the dosology disclosed in the French patent for the use in human therapy shall range from 400 to 1200 mg daily.

[3] = system: male and female mice of Swiss strain; assay: Acute toxicity after single oral administration; assay type: in vivo; conditions: for Deaths / toxic symptoms: single dose 10 g/kg
From the text: Male and female mice of Swiss strain weighing from 22 to 25 g of body weight were free of pathogen specific organisms (EOPS), stemming from breeding CERJ (53860 LE GENEST (France) and acclimated for at least 8 days in the animalry of the firm.
Except where stipulated to the contrary, in the tables giving the results, 10 animals of the same sex for each dose were housed in cages of MAKROLON (Safi) of 40 cm by 25 cm filled with shaving of wood. Standard feeding for rats and mice, tablets UAR and tap water ad libitum.
The compounds were administered without previous fasting either orally (gastric tubing using a metallic oesophageous sonde) at a rate of 0.5 ml or 1 ml per 20 g of body weight of an aqueous suspension of the test compound in a 3% solution of arabic gum, or intraperitoneally at a rate of 0.5 ml or 1 ml per 20 g of body weight of the test compound suspended in an isotonic saline solution containing 3% of arabic gum.
For 6 days after the single administration and then every day for 15 days.
When necessary, the mean lethal doses (LD 50) were calculated by the method of Behrens and Karber (BK) and Miller and Tainter (MT). The latter allowing to supply with, for the threshold of probability P=0.05 a limit of confidence for the LD 50. Further calculated were the LDo i.e. DMT=maximal doses always tolerated and the LD100 i.e. DMM=minimal doses always lethal.
The compound was administered in a single dose to batches of 10 male or female mice weighing […] at a rate of 1 ml per 20 g of body weight.

[4] = system: female rats of Wistar strain; assay: Tolerance, mortality and body weight in the rat atheroma study; conditions: 100 mg/kg
From the text: as §1, §2
The behavior and the changes in weight of the animals were surveyed every day as well as by weekly weighing.

[5] = Anti-lipaemiant activity (general statement); assay type: in vivo; conditions: read-out: Dose from which a clear anti-lipaemiant activity is shown

Structure (SMILES): COc1ccc(C(=O)CC2(O)C(=O)c3ccccc3C2=O)cc1OC [Compound of the invention, 2-[(3,4-dimethoxy-benzoyl)-methyl]-2-hydroxy-1,3-dioxo Indane]
- Cholesterol in LDL / Cholesterol in HDL, % in comparison with Controls-Diet ([1]; 100 mg/kg): -36.10%
- Total Blood Cholesterol / Cholesterol in HDL, % in comparison with Controls-Diet ([1]; 100 mg/kg): -33.22%
- Cholesterol in HDL, variation in comparison to controls-Diet ([1]; 100 mg/kg, 4 weeks): -33.33%
- Esterified cholesterol, variation in comparison to controls-Diet ([1]; 100 mg/kg, 4 weeks): -57.70%
- Total Blood lipids, variation in comparison to controls-Diet ([1]; 100 mg/kg, 4 weeks): -48.47%
- Total blood cholesterol, variation in comparison to controls-Diet ([1]; 100 mg/kg, 4 weeks): -55.47%
- Triglycerids, variation in comparison to controls-Diet ([1]; 100 mg/kg, 4 weeks): -25.86%
- Cholesterol in LDL, variation in comparison to controls-Diet ([1]; 100 mg/kg, 4 weeks, LDL (estimate)): -57.41%
- Atheromatous risk total score ([1]; 100 mg/kg, listed as Compound according to this invention): 0.90
- Atheromatous risk total score ([1]; 100 mg/kg, listed as Compound of this invention): 0.90
- Activity on the biochemical level vs Clofibrate ([1]; same doses, cholesterol-rich diet): as active as Clofibrate on the biochemical level
- Anti-inflammatory or analgesic properties at the antilipaemiant doses [2]: does not show anti-inflammatory or analgesic properties
- Toxicity ([3]; general statement): very low toxicity
- LD100 ([3]; oral, male or female mice): > 10 g/kg
- LDo ([3]; oral, male or female mice): 10 g/kg
- Deaths / toxic symptoms ([3]; oral, male or female mice): no toxicity even at a dose of 10 g/kg
- Deaths / toxic symptoms ([3]; oral, male or female mice, listed as test compound): no deaths nor toxic symptoms appeared
- Toxicity in comparison with Clofibrate ([3]; single administration, orally or parenterally): less toxic than Clofibrate
- Mortality compared with batch No. 2 (2/15) ([4]; 4 weeks, atheromatogenous regimen): did not increase it
- Tolerance compared with Clofibrate ([4]; rat, in vivo): better tolerated
- minimal effective dose [5]: ≥ 100 mg/kg
